{
  "source": "patent US10227338B2",
  "about": "“Substituted benzenesulfonamides as sodium channel blockers” (Daewoong Pharmaceutical Co., Ltd., priority 2015, dated 2019)",
  "origin": "cited, not measured here",
  "system": "neuropathic pain",
  "data": [
    {"smiles": "NCC1(CC(=O)O)CCCCC1", "note": "[gabapentin]", "values": [
      {"measurement": "effective for % of the patients", "result": 60, "unit": "%"}
    ]}
  ]
}
